Measurements published in patent publication US8236818B2, “Substituted imidazopyridine derivatives as melanocortin-4 receptor antagonists” (Santhera Pharmaceuticals (Schweiz) AG, priority 2007, dated 2012).

Assays:
[1] = target: T1, melanocortin-4 receptor (Homo sapiens, UniProt P32245); experiment: Membrane binding assay (fluorescence polarization, competition with fluorescence labeled NDP-alpha-MSH); details: read-out: hMC-4R binding assay IC50/μM
T1 construct: expressed in transfected cells; host or cells: HEK293 cells (membrane preparations)

[2] = target: T1, melanocortin-4 receptor; experiment: Functional assay (cAMP fluorescence polarization, membrane based, agonistic activity); assay type: biochemical; details: for Emax: 2 h, read-out: % activation functional assay

T1 sequence (P32245 whole entry): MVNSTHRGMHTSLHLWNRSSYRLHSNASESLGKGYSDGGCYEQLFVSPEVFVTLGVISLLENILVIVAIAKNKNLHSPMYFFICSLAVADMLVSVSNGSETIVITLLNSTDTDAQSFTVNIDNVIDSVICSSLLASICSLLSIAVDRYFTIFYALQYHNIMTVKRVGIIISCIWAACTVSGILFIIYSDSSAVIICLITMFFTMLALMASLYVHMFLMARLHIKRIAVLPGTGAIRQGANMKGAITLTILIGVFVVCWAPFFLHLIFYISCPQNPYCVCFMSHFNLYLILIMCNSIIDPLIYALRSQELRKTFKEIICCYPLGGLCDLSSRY

Row | IC50 [1] [µM] | Emax [2] [%] | EC50 ([2]; agonistic activity, cAMP, HEK293 membrane preparations, read-out: hMC-4R functional assay EC50/μM) [µM] | Compound
1 | > 1 | 0 |  | COc1cccc(-c2nc3ccc(C(=O)N(CCC(C)C)CCC(C)C)cn3c2CN2CCNCC2)c1 [Example 121]
2 | 0.1 to 1 | 0 |  | CC(C)CCN(CCC(C)C)C(=O)c1ccc2nc(-c3ccc(C#N)cc3)c(CCN3CCCC3)n2c1 [Example 26]
3 | < 0.1 | -20 |  | CC(C)CCN(CCC(C)C)C(=O)c1ccc2nc(-c3ccc(=O)n(CCO)c3)c(CCCN3CCCC3C)n2c1 (stereo not drawn) [Example 103]
4 | > 1 | -13 |  | CC(C)CCN(CCC(C)C)C(=O)c1ccc2nc(-c3ccc(OCC(C)O)nc3)c(CCCN3CCCC3)n2c1 (stereo not drawn) [Example 94]
5 | 0.1 to 1 | 0 |  | COc1cccc(-c2nc3ccc(C(=O)N(CCC(C)C)CCC(C)C)cn3c2CN2CCC(N(C)C)CC2)c1 [Example 114]
6 | 0.1 to 1 | -8 |  | CC(C)CCN(CCC(C)C)C(=O)c1ccc2nc(C3CCOCC3)c(CCCN3CCCC3)n2c1 [Example 98]
7 | < 0.1 | -17 | < 0.1 | COc1ccc(-c2nc3ccc(C(=O)N(CCC(C)C)CCC(C)C)cn3c2CCCN2CCCC2)cn1 [Example 82]
8 | < 0.1 | 0 |  | CCN(C)CCCc1c(-c2cccc(OC)c2)nc2ccc(C(=O)N(CCC(C)C)CCC(C)C)cn12 [Example 29]
9 | < 0.1 | 0 |  | COc1cccc(-c2nc3ccc(C(=O)N(CCC(C)C)CCC(C)C)cn3c2CCCN2CCCC2)c1 [Example 9]
10 | < 0.1 | -2 |  | CC(C)CCN(CCC(C)C)C(=O)c1ccc2nc(-c3ncco3)c(CCCN3CCC[C@@H]3C)n2c1 [Example 85]
11 | < 0.1 | 0 |  | Cc1ccc(-c2nc3ccc(C(=O)N(CCC(C)C)CCC(C)C)cn3c2CCCN2CCCC2)nc1 [Example 57]
12 | 0.1 to 1 | 0 |  | CC(C)CCN(CCC(C)C)C(=O)c1ccc2nc(-c3cc(O)ccn3)c(CCCN(C)C)n2c1 [Example 46]
13 | < 0.1 | 0 |  | CCCCN(CCCC)C(=O)c1ccc2nc(-c3ccc(C#N)cc3)c(CCCN3CCCC3)n2c1 [Example 142]
14 | < 0.1 | -23 |  | CC1CCCN1CCCc1c(-c2ccc(=O)[nH]c2)nc2ccc(C(=O)N(CCC3CC3)CCC3CC3)cn12 (stereo not drawn) [Example 109]
15 | < 0.1 | -8 |  | CC(C)CCN(CCC(C)C)C(=O)c1ccc2nc(-c3ncccn3)c(CCCN3CCCC3)n2c1 [Example 84]
16 | 0.1 to 1 | 0 |  | CC(=O)OCCOc1ccc(-c2nc3ccc(C(=O)N(CCC4CC4)CCC4CC4)cn3c2CCCN2CCCC2)cn1 [Example 106]
17 | < 0.1 | 0 |  | Cc1nc(C)c(-c2nc3ccc(C(=O)N(CCC(C)C)CCC(C)C)cn3c2CCCN2CCCC2)o1 [Example 48]

Row | IC50 [1] [µM] | Emax [2] [%] | EC50 ([2]; agonistic activity, cAMP, HEK293 membrane preparations, read-out: hMC-4R functional assay EC50/μM) [µM] | Compound
18 | 0.1 to 1 | 0 |  | CC(C)CCN(CCC(C)C)C(=O)c1ccc2nc(-c3ccc(Cl)cc3)c(CN3CCC(N)CC3)n2c1 [Example 117]
19 | 0.1 to 1 | -3 |  | CC(C)CCN(CCC(C)C)C(=O)c1ccc2nc(-c3ncco3)c(CCCN3CC(O)C3)n2c1 [Example 73]
20 | 0.1 to 1 | 0 |  | CC(C)CCN(CCC(C)C)C(=O)c1ccc2nc(-c3cccc(=O)[nH]3)c(CCCN3CCCC3)n2c1 [Example 62]
21 | < 0.1 | 0 |  | CC(C)CCN(CCC(C)C)C(=O)c1ccc2nc(-c3ccc(N(C)C)nc3)c(CCCN(C)C)n2c1 [Example 51]
22 | < 0.1 | 0 |  | CC(C)CCN(CCC(C)C)C(=O)c1ccc2nc(-c3nccs3)c(CCCN3CCCC3)n2c1 [Example 49]
23 | 0.1 to 1 | 0 |  | COc1ccc(-c2nc3ccc(C(=O)N(CCC(C)C)CCC(C)C)cn3c2CCCN)cc1 [Example 3]
24 | < 0.1 | 1 |  | CC(=O)OCCOc1ccc(-c2nc3ccc(C(=O)N(CCC(C)C)CCC(C)C)cn3c2CCCN2CCCC2)cn1 [Example 97]
25 | 0.1 to 1 | 0 |  | CC(C)CCN(CCC(C)CO)C(=O)c1ccc2nc(-c3ccc(=O)[nH]c3)c(CCCN3CCCC3)n2c1 (stereo not drawn) [Example 149]
26 | < 0.1 | 0 |  | N#Cc1ccc(-c2nc3ccc(C(=O)N(CCC4CC4)CCC4CC4)cn3c2CCCN2CCCC2)cc1 [Example 145]
27 | 0.1 to 1 | 0 |  | COc1ccc(-c2nc3ccc(C(=O)N(CCC(C)C)CCC(C)C)cn3c2CCCN(C)C)cc1 [Example 5]
28 | 0.1 to 1 | -19 |  | O=C(c1ccc2nc(-c3ccc(OCCO)nc3)c(CCCN3CCCC3)n2c1)N(CCC1CC1)CCC1CC1 [Example 108]
29 | < 0.1 | 0 |  | CC(C)CCN(CCC1CC1)C(=O)c1ccc2nc(-c3ccc(C#N)cc3)c(CCCN3CCCC3)n2c1 [Example 143]
30 | > 1 | 0 |  | COc1cccc(-c2nc3ccc(C(=O)N(CCC(C)C)CCC(C)C)cn3c2CCCN2CCNCC2)c1 [Example 36]
31 | < 0.1 | 0 |  | COc1cccc(-c2nc3ccc(C(=O)N(CCC(C)C)CCC(C)C)cn3c2CCCN2CCC(F)CC2)c1 [Example 30]
32 | 0.1 to 1 | 0 |  | CC(C)CCN(CCC(C)C)C(=O)c1ccc2nc(-c3ccc(=O)n(CC(C)O)c3)c(CCCN3CCCC3)n2c1 (stereo not drawn) [Example 93]
33 | < 0.1 | -22 |  | CC(C)CCN(CCC(C)C)C(=O)c1ccc2nc(-c3ccc(=O)[nH]c3)c(CCCN3CCCC3C)n2c1 (stereo not drawn) [Example 100]
34 | 0.1 to 1 | 0 |  | CC(C)CCN(CCC(C)C)C(=O)c1ccc2nc(-c3ccc4c(c3)NC(=O)CO4)c(CN3CCC(N)CC3)n2c1 [Example 137]
